Measurements published in BindingDB's records for doi:10.1021/jm00147a033 (1985).

Key:
[1] = Compound was evaluated for reversible inhibition of hydrolysis acetylcholine by acetylcholinesterase and represented as KI(competitive)
[2] = Compound was evaluated for reversible inhibition of hydrolysis acetylcholine by acetylcholinesterase and represented as KI(noncompetitive)
[3] = Compound was evaluated for reversible inhibition of hydrolysis of acetylcholine by acetylcholinesterase and represented as KI(competitive)
[4] = Compound was evaluated for reversible inhibition of hydrolysis acetylcholine by acetylcholinesterase and represented as KI(competitive); remark: listed apart in the source

Row | SMILES | Ki [1] | Ki [2] | other results
1 | CS(=O)(=O)CCO [2-Methanesulfonyl-ethanol] | 8.7 mM | 100 mM | –
2 | C[Si](C)(C)CCO [2-Trimethylsilanyl-ethanol] | 3.3 mM | – | –
3 | C[N+](C)(C)CCO [2-hydroxy-N,N,N-trimethylethanaminium] | – | 7.6 mM | –
4 | CC(C)(C)CCO [3,3-Dimethyl-butan-1-ol] | – | 19 mM | –
5 | CC(=O)CCC[N+](C)(C)[O-] [5-dimethylamino-2-pentanone-N-oxide] | – | – | Ki [3]: 14 mM
6 | CS(C)(I)CCO [(2-Hydroxy-ethyl)-dimethyl-sulfonium; iodide] | – | 13 mM | –
7 | CC(=O)OCCS(C)(=O)=O [Acetic acid 2-methanesulfonyl-ethyl ester] | – | – | Ki [4]: 6.4 mM
8 | C[S+](C)C [Trimethyl-sulfonium; iodide] | 2 mM | 7.2 mM | –
